# According to patent publication US4639509A, “[16,19-Di-alanine] calcitonin” (Armour Pharmaceutical Company, priority 1985, dated 1987):
# Bridge positions count the residues as written; N and C are the ends. Peptide text beside a SMILES is read from it.
# Legend:
# [1] = test system: serum calcium concentration
# Description: Rats were divided into four groups of seven animals, and each group was assigned at random to a dose of standard or test solution. Low and high doses were chosen from the linear portion of the dose-responsive curve. For the salmon calcitonin standard, the values were 0.7 and 2.1 mcg. peptide/100 g. body weight (BW). This dose approximates 3 and 9 MU/100 g. BW. Peptides were given by subcutaneous injection (0.2 ml/100 g. BW) and blood was withdrawn 1 hour later for serum calcium determination. Sera are processed and analyzed within two hours of collection. Results were analyzed within two hours of collection.
# [2] = literature values; cited from earlier work
molecule,measurement,setting,value
"CC(C)C[C@H](NC(=O)[C@H](CCCCN)NC(=O)CNC(=O)[C@H](CC(C)C)NC(=O)[C@@H](NC(=O)[C@@H]1CSSC[C@H](N)C(=O)N[C@@H](CO)C(=O)N[C@@H](CC(N)=O)C(=O)N[C@@H](CC(C)C)C(=O)N[C@@H](CO)C(=O)N[C@@H]([C@@H](C)O)C(=O)N1)C(C)C)C(=O)N[C@@H](CO)C(=O)N[C@@H](CCC(N)=O)C(=O)N[C@@H](CCC(=O)O)C(=O)N[C@@H](C)C(=O)N[C@@H](Cc1c[nH]cn1)C(=O)N[C@@H](CCCCN)C(=O)N[C@@H](C)C(=O)N[C@@H](CCC(N)=O)C(=O)N[C@H](C(=O)N[C@@H](Cc1ccc(O)cc1)C(=O)N1CCC[C@H]1C(=O)N[C@@H](CCCNC(=N)N)C(=O)N[C@H](C(=O)N[C@@H](CC(N)=O)C(=O)N[C@H](C(=O)NCC(=O)N[C@@H](CO)C(=O)NCC(=O)N[C@H](C(=O)N1CCC[C@H]1C(N)=O)[C@@H](C)O)[C@@H](C)O)[C@@H](C)O)[C@@H](C)O [[Di-Ala^16,19]SCT, [16,19-Di-Alanine]salmon calcitonin] (H-CSNLSTCVLGKLSQEAHKAQTYPRTNTGSGTP-NH2; disulfide 1-7)",biological potency,"[1]; rat, in vivo, sc",7200 IU/mg
"CC(C)C[C@H](NC(=O)[C@H](CCCCN)NC(=O)CNC(=O)[C@H](CC(C)C)NC(=O)[C@@H](NC(=O)[C@@H]1CSSC[C@H](N)C(=O)N[C@@H](CO)C(=O)N[C@@H](CC(N)=O)C(=O)N[C@@H](CC(C)C)C(=O)N[C@@H](CO)C(=O)N[C@@H]([C@@H](C)O)C(=O)N1)C(C)C)C(=O)N[C@@H](CO)C(=O)N[C@@H](CCC(N)=O)C(=O)N[C@@H](CCC(=O)O)C(=O)N[C@@H](CC(C)C)C(=O)N[C@@H](Cc1c[nH]cn1)C(=O)N[C@@H](CCCCN)C(=O)N[C@@H](CC(C)C)C(=O)N[C@@H](CCC(N)=O)C(=O)N[C@H](C(=O)N[C@@H](Cc1ccc(O)cc1)C(=O)N1CCC[C@H]1C(=O)N[C@@H](CCCNC(=N)N)C(=O)N[C@H](C(=O)N[C@@H](CC(N)=O)C(=O)N[C@H](C(=O)NCC(=O)N[C@@H](CO)C(=O)NCC(=O)N[C@H](C(=O)N1CCC[C@H]1C(N)=O)[C@@H](C)O)[C@@H](C)O)[C@@H](C)O)[C@@H](C)O [standard salmon calcitonin, Salmon calcitonin]",potency content of the standard,"[1]; standard used in the assay, independently determined","greater than 4,000 IU/mg"
"(1,7-α-L-amino-suberic acid)eel calcitonin",hypocalcemic potency,[2],about 3400 Iu/mg
